Assay results reported in patent publication US12378234B2, “Crystalline polymorphs of a 1-thiazol-2-yl-pyrazole-5-carboxylic acid derivative” (Bantam Pharmaceutical, LLC, priority 2019, dated 2025).
≈ marks a conversion by molar mass, not a printed value.

How the values were obtained:
Format in all cases: physicochemical
[1] = Solubility of crystalline polymorph in biologically relevant media (water, SGF, FaSSIF, FeSSIF), HPLC of supernatant, pH, XRPD of remaining solids; conditions: for solubility at 1 h / solubility at 4 h / solubility at 24 h: thermodynamic from solid, 37° C.; for pH: solubility test
Protocol: The solubility of crystalline polymorph Form 1 was tested in biologically relevant media: water, simulated gastric fluid (SGF), fasted state simulated intestinal fluid (FaSSIF) and fed state simulated intestinal fluid (FeSSIF). For example, the crystalline polymorph was suspended in the solvent with stirring at 400 rpm at 37° C. for 1 h, 4 h and 24 h followed by filtration. The supernatant concentration was measured by HPLC (Mobile phase A: 0.1% NH3 in H2O, Mobile phase B: acetonitrile; flow rate: 0.8 mL/min; injection volume: 5 μL). The remaining solids were tested by XRPD.
The solubility of crystalline polymorph Form 11 was tested in biologically relevant media: water, SGF, FaSSIF, and FeSSIF. For example, the crystalline polymorph was suspended in the solvent with stirring at 400 rpm at 37° C. for 1 h, 4 h and 24 h followed by filtration. The supernatant was measured by HPLC for concentration and the remaining solids were tested by XRPD.

[2] = Physical and chemical stability under stressed conditions (HPLC, XRPD); conditions: 40° C./75% RH for 1 week
Protocol: Physical and chemical stability evaluation has been performed for crystalline polymorph Form 1 under stressed conditions. In the experiments, about 10 mg of the polymorph was placed into 4 ml glass vials that were stored under 40° C./75% RH for 1 week. HPLC was utilized to evaluate the degradation, and XPRD was used to evaluate the crystalline polymorph.

[3] = Dynamic vapor sorption (DVS)
Protocol: TGA and DSC measurements indicated weight loss of 0.1% at 150° C. and an endothermic peak at 120.0° C.
Dynamic Vapor Sorption (DVS) was measured with a SMS DVS Intrinsic from Surface Measurement Systems (London, United Kingdom) using the following parameters: temperature: 25° C.; sample size: 10-20 mg; gas and flow rate: N2 and 200 mL/min; dm/dt: 0.002%/min; min. dm/dt stability duration: 10 min; max. equilibrium time: 180 min; relative humidity (RH) range: 0% RH-95% RH-0% RH; RH step size: 10%.

[4] = Slurry conversion (competitive) experiments for thermodynamic stability relationship; conditions: slurry of Form 1:Form 5 (1:1) in H2O:acetone (9:1) or H2O:ethanol (3:1), room temperature, 2 or 3 days
Protocol: To determine the thermodynamic stability relationship between Form 1 and Form 5, slurry conversion experiments were conducted. Specifically, Form 1 sample was added to 1.0 mL H2O:acetone (9:1 v:v) or 0.8 mL of H2O:ethanol (3:1 v:v) at room temperature. After equilibrium for 1 hr, the suspensions were filtered to obtain a saturated solution Form 1. To each saturated solution of Form 1:Form 5 (1:1) was added. After stirring at room temperature for 2 or 3 days, the solids were isolated for XRPD analysis.
To determine the thermodynamic stability relationship between Form 11 and Form 12, slurry conversion experiments were conducted. Specifically, Form 12 (2.5 mg) was added to 1.0 mL of 4% dichloromethane at room temperature. After equilibrium for 1 hour, the suspensions were filtered to obtain a saturated solution Form 12. To the saturated solution of Form 11:Form 12 (1:1) was added. After stirring at room temperature for 30 minutes, the solids were isolated for XRPD analysis. […] The pH of Form 11 solution (2.5 mg in 1 mL of 4% dichloromethane) and Form 12 solution (2.5 mg in 1 mL of 4% dichloromethane) was measured to be 8.25 and 7.98, respectively.

## Cc1nn(-c2nc(C3=CCC(C(F)(F)F)CC3)c(SC(C)C)s2)c(C(=O)O)c1-c1cccc(F)c1 (stereo not drawn) [Form 1, 4-(3-fluorophenyl)-1-(5-(isopropylthio)-4-(4-(trifluoromethyl)cyclohex-1-en-1-yl)thiazol-2-yl)-3-methyl-1H-pyrazole-5-carboxylic acid]
[1]; after solubility test in FaSSIF
  Form change by XRPD of remaining solids: one unknown peak was observed at about 31 2θ degrees
[1]; after solubility test in FeSSIF
  Form change by XRPD of remaining solids: no form change was observed
[1]; after solubility test in SGF
  Form change by XRPD of remaining solids: no form change was observed
[1]; after solubility test in water
  Form change by XRPD of remaining solids: no form change was observed
[1]; fasted state simulated intestinal fluid (FaSSIF), FaSSIF, 1 hr
  solubility at 1 h: 140 µg/mL (≈ 266 µM)
[1]; fasted state simulated intestinal fluid (FaSSIF), FaSSIF, 4 hr
  solubility at 4 h: 220 µg/mL (≈ 419 µM)
[1]; fasted state simulated intestinal fluid (FaSSIF), FaSSIF, 24 hr
  solubility at 24 h: 200 µg/mL (≈ 381 µM)
[1]; fed state simulated intestinal fluid (FeSSIF), FeSSIF, 1 hr
  solubility at 1 h: 170 µg/mL (≈ 323 µM)
[1]; fed state simulated intestinal fluid (FeSSIF), FeSSIF, 4 hr
  solubility at 4 h: 180 µg/mL (≈ 342 µM)
[1]; fed state simulated intestinal fluid (FeSSIF), FeSSIF, 24 hr
  solubility at 24 h: 140 µg/mL (≈ 266 µM)
[1]; simulated gastric fluid (SGF), simulated gastric fluid, SGF, 1 hr
  solubility at 1 h: 50 µg/mL (≈ 95.1 µM)
[1]; simulated gastric fluid (SGF), simulated gastric fluid, SGF, 4 hr
  solubility at 4 h: 30 µg/mL (≈ 57.1 µM)
[1]; simulated gastric fluid (SGF), simulated gastric fluid, SGF, 24 hr
  solubility at 24 h: 30 µg/mL (≈ 57.1 µM)
[1]; FaSSIF, 1 hr
  pH: 6.55
[1]; FaSSIF, 4 hr
  pH: 5.75
[1]; FaSSIF, 24 hr
  pH: 5.12
[1]; FeSSIF, 1 hr
  pH: 5.07
[1]; FeSSIF, 4 hr
  pH: 5.06
[1]; FeSSIF, 24 hr
  pH: 4.94
[1]; H2O, 1 hr
  pH: 7.00
[1]; H2O, 4 hr
  pH: 7.82
[1]; H2O, 24 hr
  pH: 6.68
[1]; SGF, 1 hr
  pH: 1.93
[1]; SGF, 4 hr
  pH: 1.75
[1]; SGF, 24 hr
  pH: 1.83
[1]; water, H2O, 1 hr
  solubility at 1 h: 490 µg/mL (≈ 932 µM)
[1]; water, H2O, 4 hr
  solubility at 4 h: 1300 µg/mL (≈ 2470 µM)
[1]; water, H2O, 24 hr
  solubility at 24 h: 1700 µg/mL (≈ 3230 µM)
[2]
  physical and chemical stability: physically stable
[3]; 25° C./80% relative humidity
  water uptake (DVS): 0.6%
[3]; XRPD, FIG. 1E
  form change before and after DVS: no form change was observed
[3]; from DVS at 25° C./80% relative humidity
  hygroscopicity: slightly hygroscopic
[4]
  thermodynamic stability relationship between Form 1 and Form 5: more thermodynamically stable than Form 5
